This note sets out measurements from patent US9676760B2, “Fused heterocyclic compounds as ion channel modulators” (Gilead Sciences, Inc., priority 2011, dated 2017).

Structures are written as SMILES.

Sequence of wild-type human cardiac sodium channel, hNav1.5 (Q14524 whole entry): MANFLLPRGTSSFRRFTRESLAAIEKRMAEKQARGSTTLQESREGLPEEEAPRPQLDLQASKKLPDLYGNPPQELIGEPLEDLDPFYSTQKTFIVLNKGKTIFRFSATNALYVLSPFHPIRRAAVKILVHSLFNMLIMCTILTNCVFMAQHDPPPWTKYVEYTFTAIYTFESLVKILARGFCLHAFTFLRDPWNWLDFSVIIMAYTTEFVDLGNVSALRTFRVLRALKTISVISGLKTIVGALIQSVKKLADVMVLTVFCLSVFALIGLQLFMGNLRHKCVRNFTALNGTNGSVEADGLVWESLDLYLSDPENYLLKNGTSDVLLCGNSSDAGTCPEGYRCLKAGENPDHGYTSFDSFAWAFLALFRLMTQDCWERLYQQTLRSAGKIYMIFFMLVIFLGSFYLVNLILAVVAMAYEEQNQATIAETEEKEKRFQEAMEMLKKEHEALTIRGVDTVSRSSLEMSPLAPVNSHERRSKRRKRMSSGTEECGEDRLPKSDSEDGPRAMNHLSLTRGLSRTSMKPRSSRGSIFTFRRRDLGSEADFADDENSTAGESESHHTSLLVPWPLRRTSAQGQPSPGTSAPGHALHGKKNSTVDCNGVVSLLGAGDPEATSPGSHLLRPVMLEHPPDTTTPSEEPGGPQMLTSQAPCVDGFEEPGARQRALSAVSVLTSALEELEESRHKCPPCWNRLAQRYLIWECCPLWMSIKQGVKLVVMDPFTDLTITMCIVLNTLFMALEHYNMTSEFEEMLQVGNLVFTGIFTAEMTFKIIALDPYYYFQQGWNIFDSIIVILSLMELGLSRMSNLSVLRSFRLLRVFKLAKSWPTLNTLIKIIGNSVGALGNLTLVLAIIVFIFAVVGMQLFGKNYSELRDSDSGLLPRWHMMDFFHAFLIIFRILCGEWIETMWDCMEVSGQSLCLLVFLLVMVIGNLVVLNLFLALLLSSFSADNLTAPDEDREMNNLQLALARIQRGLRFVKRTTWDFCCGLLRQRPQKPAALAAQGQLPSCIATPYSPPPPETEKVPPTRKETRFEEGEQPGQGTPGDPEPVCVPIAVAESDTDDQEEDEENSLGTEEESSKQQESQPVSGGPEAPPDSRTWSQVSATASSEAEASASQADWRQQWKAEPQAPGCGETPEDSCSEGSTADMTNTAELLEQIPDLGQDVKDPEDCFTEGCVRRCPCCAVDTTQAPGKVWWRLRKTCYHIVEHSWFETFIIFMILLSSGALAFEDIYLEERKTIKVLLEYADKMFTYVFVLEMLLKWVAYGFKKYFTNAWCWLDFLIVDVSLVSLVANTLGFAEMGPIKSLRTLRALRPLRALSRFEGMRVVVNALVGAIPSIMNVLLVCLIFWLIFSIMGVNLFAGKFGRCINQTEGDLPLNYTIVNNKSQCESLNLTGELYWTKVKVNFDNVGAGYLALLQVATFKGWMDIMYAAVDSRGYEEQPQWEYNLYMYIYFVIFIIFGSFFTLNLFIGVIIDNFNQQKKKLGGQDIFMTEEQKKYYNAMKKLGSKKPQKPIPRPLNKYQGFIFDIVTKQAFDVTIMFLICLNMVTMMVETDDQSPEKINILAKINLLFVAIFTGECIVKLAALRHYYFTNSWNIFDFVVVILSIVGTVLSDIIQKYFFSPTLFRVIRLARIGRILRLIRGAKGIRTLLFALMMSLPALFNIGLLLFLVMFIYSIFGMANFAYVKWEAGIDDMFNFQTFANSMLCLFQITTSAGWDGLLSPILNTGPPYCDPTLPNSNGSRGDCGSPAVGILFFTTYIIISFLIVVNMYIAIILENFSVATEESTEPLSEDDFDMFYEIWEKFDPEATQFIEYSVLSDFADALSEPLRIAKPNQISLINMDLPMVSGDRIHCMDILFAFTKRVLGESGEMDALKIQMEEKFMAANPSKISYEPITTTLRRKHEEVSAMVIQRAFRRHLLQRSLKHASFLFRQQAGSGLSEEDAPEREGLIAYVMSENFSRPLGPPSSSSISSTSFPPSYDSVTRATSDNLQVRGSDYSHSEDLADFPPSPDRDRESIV

One test addresses wild-type human cardiac sodium channel, hNav1.5 (Homo sapiens, UniProt Q14524). Nature of the test: Late INa screening assay (QPatch whole cell patch clamp, HEK293). The class given is cell-based. The note with it: 10 μM Tefluthrin activating late INa. As to the method:
The late sodium current (Late INa) and peak sodium current (Peak INa) assays are performed on an automated electrophysiology platform, QPatch 16× (Sophion Bioscience, Copenhagen, Denmark), which uses the whole cell patch clamp technique to measure currents through the cell membrane of up to 16 cells at a time. The assay uses an HEK293 (human embryonic kidney) cell line heterologously expressing the wild-type human cardiac sodium channel, hNav1.5, purchased from Millipore (Billerica, Mass.). No beta subunits were coexpressed with the Na channel alpha subunit. Cells are maintained with standard tissue culture procedures and stable channel expression is maintained with 400 μg/mL Geneticin in the culture medium. Cells isolated for use on QPatch are incubated for 5 minutes in Detachin 1×(Genlantis, San Diego, USA) at 37° C. to ensure that 80-90% of the cells are single and not part of a cell cluster. Experiments are carried out at 23-25° C.
For both the Late INa and Peak INa assays, series resistance compensation is set to 100% and series resistance and whole-cell compensation are performed automatically. Currents are digitized at 25 kHz and low-pass filtered at 12 kHz and 10 kHz for the late and peak INa assays, respectively. Currents through open sodium channels are automatically recorded and stored in the Sophion Bioscience Oracle database (Sophion Bioscience, Copenhagen, Denmark). Analysis is performed using QPatch Assay and database software and data are compiled in Excel.
Compound stocks are routinely made by the Gilead Sample Bank in plastic vials to 10 mM in dimethyl sulfoxide (DMSO). In some cases, when compounds are not soluble in DMSO, they are made in 100% ethanol. Stocks are sonicated as necessary. The extracellular solution for screening Late INa is composed of: 140 mM NaCl, 4 mM KCl, 1.8 mM CaCl2, 0.75 mM MgCl2 and 5 mM HEPES with pH adjusted to 7.4 using NaOH. The intracellular solution used to perfuse the inside of the cells for both the Late INa and Peak INa assays contains: 120 mM CsF, 20 mM CsCl, 5 mM EGTA, 5 mM HEPES and pH adjusted to 7.4 with CsOH. Compounds are diluted in extracellular solution to 1 μM in glass vials and then transferred to glass well plates before robotic addition to the cells. The 0 mM Na extracellular solution (0Na-ECF) used at the end of each experiment for the Late INa and Peak INa assays to measure baseline current contains: 140 mM N-methyl-D-glucamine; 4 mM KCl; 1.8 mM CaCl2; 0.75 mM MgCl2; 5 mM HEPES and pH was adjusted to 7.4 with HCl.
For the Late INa assay, sodium channels are activated every 10 seconds (0.1 Hz) by depolarizing the cell membrane to −20 mV for 250 milliseconds (ms) from a holding potential of −120 mV. In response to a −20 mV voltage step, typical hNav1.5 sodium currents activate rapidly to a peak negative current and then inactivate nearly completely within 3-4 ms.
Compounds were tested to determine their activity in blocking the late sodium current. Late INa was generated by adding 10 μM Tefluthrin (pyrethroid) to the extracellular solution while recording Na currents. […] ATX-II and tefluthrin occupy distinct, non-overlapping binding sites and modify Na^+ channel function differently to increase late INa. […] After establishing the whole cell recording configuration, late INa activator is added to each well 4 times over a 16-17 minute period so that the late component of the Na current reaches a stable value.
Results are reported as percent block of late INa.
Background: In patch-clamp work, channel activity is measured electrically.
For `O=C1c2cc(-c3ccc(C(F)(F)F)cc3F)ccc2OCCN1Cc1ncccn1` [Compound 11-105], the “inhibited (or reduced) the late sodium current” value was 45%.

Staying with this test, now noted: HEK293, percent block of late INa; compound at 1 μM; 10 μM Tefluthrin; read-out: Late INa 1 μM.
Consider `CC(C)(C)C1CC=C(c2ccc3c(c2)C(=O)N(Cc2ncccn2)CCO3)CC1` (centres unmarked) [Compound V-1, 7-(4-tert-butylcyclohex-1-enyl)-4-(pyrimidin-2-ylmethyl)-3,4-dihydrobenzo[f][1,4]oxazepin-5(2H)-one], for which the inhibition at 1 µM worked out at 24%.
On the same count and under the same terms, in the case of `O=C1c2cc(C3=CCCCC3)ccc2OCCN1Cc1ncccn1` [Compound V-3, 7-cyclohexenyl-4-(pyrimidin-2-ylmethyl)-3,4-dihydrobenzo[f][1,4]oxazepin-5(2H)-one] it was 23%; in that of `O=C1c2cc(-c3ccc(C(F)(F)F)cc3)ccc2-n2ccnc2CN1Cc1ccccc1` [Compound X-12, 5-benzyl-8-(4-(trifluoromethyl)phenyl)-4H-benzo[f]imidazo[1,2-a][1,4]diazepin-6(5H)-one], 26%.
Still for that read-out and setting: for `CC1(CN2CCOc3ccc(-c4ccc(OC(F)(F)F)cc4)cc3C2=O)COC1` [II-1, 4-((3-methyloxetan-3-yl)methyl)-7-(4-(trifluoromethoxy)phenyl)-3,4-dihydrobenzo[f][1,4]oxazepin-5(2H)-one] the value was 25%; for `O=C1c2cc(-c3ccc(OC(F)(F)F)cc3)ccc2OCCN1CCN1CCCC1` [II-3, 4-(2-(pyrrolidin-1-yl)ethyl)-7-(4-(trifluoromethoxy)phenyl)-3,4-dihydrobenzo[f][1,4]oxazepin-5(2H)-one], 15%; for `O=C1c2cc(-c3ccc(OC(F)(F)F)cc3)ccc2OCCN1Cc1nnc(C2CCC2)o1` [II-4, 4-((5-cyclobutyl-1,3,4-oxadiazol-2-yl)methyl)-7-(4-(trifluoromethoxy)phenyl)-3,4-dihydrobenzo[f][1,4]oxazepin-5(2H)-one], 30%.
On the same count and under the same terms, in the case of `O=C1c2cc(-c3ccc(OC(F)(F)F)cc3)ccc2OCCN1Cc1ccc2c(c1)OCCO2` [II-5, 4-((2,3-dihydrobenzo[b][1,4]dioxin-6-yl)methyl)-7-(4-(trifluoromethoxy)phenyl)-3,4-dihydrobenzo[f][1,4]oxazepin-5(2H)-one] it was 26%; in that of `O=C1c2cc(-c3ccc(OC(F)(F)F)cc3)ccc2OCCN1CC(F)F` [II-6, 4-(2,2-difluoroethyl)-7-(4-(trifluoromethoxy)phenyl)-3,4-dihydrobenzo[f][1,4]oxazepin-5(2H)-one], 16%.
Take `O=C1c2cc(-c3ccc(C(F)(F)F)cc3)ccc2OC[C@H]2CN(Cc3ncccn3)CCN12` [II-8, (R)-2-(pyrimidin-2-ylmethyl)-8-(4-(trifluoromethyl)phenyl)-3,4,12,12a-tetrahydro-1H-benzo[f]pyrazino[2,1-c][1,4]oxazepin-6(2H)-one]: the inhibition at 1 µM was found to be 21%.
On the same count and under the same terms, in the case of `COCCN1CCOc2ccc(-c3ccc(OC(F)(F)F)cc3)cc2C1=O` [II-11, 4-(2-methoxyethyl)-7-(4-(trifluoromethoxy)phenyl)-3,4-dihydrobenzo[f][1,4]oxazepin-5(2H)-one] it was 23%; in that of `C[C@H]1COc2ccc(-c3ccc(C(F)(F)F)cc3)cc2C(=O)N1Cc1ncccn1` [II-12, (S)-3-methyl-4-(pyrimidin-2-ylmethyl)-7-(4-(trifluoromethyl)phenyl)-3,4-dihydrobenzo[f][1,4]oxazepin-5(2H)-one], 21%.
On the same count and under the same terms, in the case of `C[C@@H]1COc2ccc(-c3ccc(C(F)(F)F)cc3)cc2C(=O)N1Cc1ncccn1` [II-13, (R)-3-methyl-4-(pyrimidin-2-ylmethyl)-7-(4-(trifluoromethyl)phenyl)-3,4-dihydrobenzo[f][1,4]oxazepin-5(2H)-one] it was 18%; in that of `O=C1c2cc(-c3ccc(OC(F)(F)F)cc3)ccc2OCCN1Cc1ccc(C(F)(F)F)nc1` [II-16, 7-(4-(trifluoromethoxy)phenyl)-4-((6-(trifluoromethyl)pyridin-3-yl)methyl)-3,4-dihydrobenzo[f][1,4]oxazepin-5(2H)-one], 19%; in that of `C[C@@H]1COc2ccc(-c3ccc(C(F)(F)F)cc3)cc2C(=O)N1` [II-19, (R)-3-methyl-7-(4-(trifluoromethyl)phenyl)-3,4-dihydrobenzo[f][1,4]oxazepin-5(2H)-one], 21%.
On the same count and under the same terms, in the case of `N[C@@H]1C[C@H]2COc3ccc(-c4ccc(C(F)(F)F)cc4)cc3C(=O)N2C1` [II-21, (2R,11aS)-2-amino-7-(4-(trifluoromethyl)phenyl)-2,3,11,11a-tetrahydrobenzo[f]pyrrolo[2,1-c][1,4]oxazepin-5(1H)-one] it was 18%.
Take `CCN1CCN2C(=O)c3cc(-c4ccc(C(F)(F)F)cc4)ccc3OC[C@H]2C1` [II-23, (R)-2-ethyl-8-(4-(trifluoromethyl)phenyl)-3,4,12,12a-tetrahydro-1H-benzo[f]pyrazino[2,1-c][1,4]oxazepin-6(2H)-one]: the inhibition at 1 µM was determined as 25%.
Still for that read-out and setting: in the case of `O=C1c2cc(-c3ccc(C(F)(F)F)cc3)ccc2OC[C@@H]2CN(CC(F)F)CCN12` [II-24, (S)-2-(2,2-difluoroethyl)-8-(4-(trifluoromethyl)phenyl)-3,4,12,12a-tetrahydro-1H-benzo[f]pyrazino[2,1-c][1,4]oxazepin-6(2H)-one] it was 23%; in that of `CCN1CCN2C(=O)c3cc(-c4ccc(C(F)(F)F)cc4)ccc3OC[C@@H]2C1` [II-25, (S)-2-ethyl-8-(4-(trifluoromethyl)phenyl)-3,4,12,12a-tetrahydro-1H-benzo[f]pyrazino[2,1-c][1,4]oxazepin-6(2H)-one], 25%.
Same read-out and setting: for `CC1(C)COC(C)(CCN2CCOc3ccc(-c4ccc(OC(F)(F)F)cc4)cc3C2=O)OC1` [II-35, 7-(4-(trifluoromethoxy)phenyl)-4-(2-(2,5,5-trimethyl-1,3-dioxan-2-yl)ethyl)-3,4-dihydrobenzo[f][1,4]oxazepin-5(2H)-one] the value was 25%; for `CC(C)(C)OC(=O)N[C@@H]1C[C@@H]2COc3ccc(-c4ccc(C(F)(F)F)cc4)cc3C(=O)N2C1` [II-39, tert-butyl (2R,11aR)-5-oxo-7-(4-(trifluoromethyl)phenyl)-1,2,3,5,11,11a-hexahydrobenzo[f]pyrrolo[2,1-c][1,4]oxazepin-2-ylcarbamate], 16%; for `O=C1c2cc(-c3ccc(OC(F)(F)F)cc3)ccc2OCCN1Cc1cc(-c2ccccn2)on1` [II-41, 4-((5-(pyridin-2-yl)isoxazol-3-yl)methyl)-7-(4-(trifluoromethoxy)phenyl)-3,4-dihydrobenzo[f][1,4]oxazepin-5(2H)-one], 17%.
Take `CCOC(=O)c1cccc(CN2CCOc3ccc(-c4ccc(OC(F)(F)F)cc4)cc3C2=O)c1` [II-43, ethyl 3-((5-oxo-7-(4-(trifluoromethoxy)phenyl)-2,3-dihydrobenzo[f][1,4]oxazepin-4(5H)-yl)methyl)benzoate]: the inhibition at 1 µM was found to be 23%.
Still for that read-out and setting: in the case of `O=C1c2cc(-c3ccc(OC(F)(F)F)cc3)ccc2OCCN1CCc1ncccn1` [II-44, 4-(2-(pyrimidin-2-yl)ethyl)-7-(4-(trifluoromethoxy)phenyl)-3,4-dihydrobenzo[f][1,4]oxazepin-5(2H)-one] it was 39%.
Turning to `O=C1c2cc(-c3ccc(OC(F)(F)F)cc3)ccc2OCCN1Cc1ccc(F)c(F)c1` [II-45, 4-(3,4-difluorobenzyl)-7-(4-(trifluoromethoxy)phenyl)-3,4-dihydrobenzo[f][1,4]oxazepin-5(2H)-one], the inhibition at 1 µM was determined as 27%.
As to `N[C@H]1C[C@H]2COc3ccc(-c4ccc(C(F)(F)F)cc4)cc3C(=O)N2C1` [II-51, (2S,11aS)-2-amino-7-(4-(trifluoromethyl)phenyl)-2,3,11,11a-tetrahydrobenzo[f]pyrrolo[2,1-c][1,4]oxazepin-5(1H)-one], the inhibition at 1 µM amounted to 20%.
